# Assay results as given in patent US20100233093A1, “Magnetic resonance imaging contrast agent with paramagnetic-inositol phosphates complexes” (GACHON UNIVERSITY OF MEDICINE & SCIENCE INDUSTRY-ACADEMIC …, priority 2009, published 2010).
# “And” between values parts separate entries of the source, which are not always exact repeats. Equal values may be shown once.
# Experiments:
# [1] = Stability constant (K) from thermodynamic parameters of ITC analysis; type: physicochemical; settings: calculated from ΔG of ITC analysis
# Text: A stability constant (formation constant, binding constant) is an equilibrium constant for the formation of a complex in solution. It is a measure of the strength of the interaction between the reagents that come together to form the complex. The thermodynamics of metal ion complex formation provides much significant information. The chelate effect, below, is best explained in terms of thermodynamics. An equilibrium constant is related to the standard Gibbs free energy change for the reaction.
# [2] = ITC analysis of Gd^3+ binding to EDTA; settings: higher affinity than EDTA
# [3] = ITC analysis of Ca^2+ binding to phytate; settings: Ca^2+ stronger than Mg^2+
SMILES,Stability Constant (K) [1] [M⁻¹],affinity for Gd^3+ relative to EDTA [2],binding affinity for Ca^2+ relative to Mg^2+ [3] [fold]
O=C([O-])CN1CCN(CC(=O)[O-])CCN(CC(=O)O)CCN(CC(=O)[O-])CC1.[Gd+3] [Gd-DOTA],1.3e+29,,
O=C([O-])CN(CCN(CC(=O)[O-])CC(=O)O)CCN(CC(=O)[O-])CC(=O)O.[Gd+3] [Gd-DTPA],1.2e+28,,
O=C([O-])CN(CCN(CC(=O)[O-])CC(=O)[O-])CC(=O)[O-].[Gd+3] [Gd-EDTA],4.4e+29,,
O=P(O)(O)OC1C(OP(=O)(O)O)C(OP(=O)(O)O)C(OP(=O)(O)O)C(OP(=O)(O)O)C1OP(=O)(O)O (centres unmarked) [phytate],,10 fold and 10- to 100 fold,100
